Results: US20210323995A1, “ISOLITHOCHOLIC ACID OR ISOALLOLITHOCHOLIC ACID AND DEUTERATED DERIVATIVES THEREOF FOR PREVENTING AND TREATING CLOSTRIDIUM DIFFICILE-ASSOCIATED DISEASES” (PHENEX PHARMACEUTICALS AG, priority 2018, published 2021)
Converted amounts (≈) assume the structure as drawn. Read-outs that look alike come from different tables or passages of the source.

How the values were obtained:
[1] = system: Clostridium difficile (Clostridioides difficile), Human Strain R20291, Ribotype RT027; experiment: MIC on Clostridium difficile human strain R20291, ribotype RT027; type: cell-based; conditions: 16 h incubation, OD600
Description: Determination of Minimal Inhibitory Concentrations (MICs) of Bile Acid Derivatives on Clostridium difficile (Clostridioides difficile), Human Strain R20291, Ribotype RT027, Reference DSMZ (DSM-27147)
All bacterial culturing steps and MIC experiments were performed under anoxic conditions (95% N2, 5% H2) and 37° C. in an incubator model 2002 that was placed in a Type B vinyl anaerobic chamber, both from Coy Laboratories Products. The strains were maintained as frozen stock cultures in Brain-Heart Infusion broth supplemented with […] and 1% (w/v) L-cysteine (BHIS) containing 40% (v/v) glycerine (Carl Roth GmbH, Cat. #3783.1) at −80° C. Brain-heart infusion broth (Sigma Aldrich, Cat. #53286) with the addition of with 5 g/L yeast extract (Carl Roth GmbH, Cat. #2363.5) was prepared according to the manufacturer's instructions. After heat sterilization, 1 g L-cysteine (Sigma Aldrich, Cat. #C7352) was added that was dissolved in 10 mL of distilled water (H2Odd) and filter sterilized. Medium was placed over night into the anaerobic chamber for degassing. For the MIC-assay cryo-preserved strains were streaked out on BBL™ Columbia CNA Agar with 5% Sheep Blood (BD™, Cat. #221352) and grown for 2-3 d. These plates were kept at rt in the anaerobic chamber for up to two weeks for starting fresh liquid cultures. […]

[2] = system: Clostridium difficile (Clostridioides difficile), Mouse Strain VPI 10463 (ATCC 43255); experiment: MIC on Clostridium difficile mouse strain VPI 10463; type: cell-based; conditions: ATCC43255, 48 hours, presence/absence of growth, tested 0.015-250 μM
Description: Determination of Minimal Inhibitory Concentrations (MICs) of Bile Acid Derivatives on Clostridium difficile (Clostridioides difficile), Mouse Strain VPI 10463 (ATCC 43255)
Concentrations (0.015-250 μM) of test compounds are prepared by serial two-fold dilutions in pre-reduced brain heart infusion (BHI) broth. To each well containing test article, approximately 5×10^5 CFU of bacteria are added and incubated for 48 hours in an anaerobic chamber at 37° C. Following incubation, the MIC of each test article is determined by presence/absence of bacterial growth in each well.

[3] = system: C. diff. strain VPI 10463 (ATCC-43255) infection; experiment: Recurrence model mouse of C. diff. infection; type: in vivo, C57BL/6 female mice; conditions: for survival of the animals: comparison Example 3 against Example 1 (FIG. 3); for Survived / Total Deaths: Day 5 to Day 11, n 10
Description: The efficacy of compounds in suppressing recurrent C. diff. infection was assessed in C57BL/6 female mice. Mice were made vulnerable to C. diff. infection by administration of a cocktail of antibiotics (1% glucose, kanamycin (0.5 mg/mL), gentamicin (44 μg/mL), colistin (1062.5 U/mL), metronidazole (269 μg/mL), ciprofloxacin (156 μg/mL), ampicillin (100 μg/mL) and vancomycin (56 μg/mL)) in drinking water for a period of 9 days. 3 days prior to C. diff. infection, mice received a single dose of clindamycin (10 mg/kg) in a volume of 0.5 mL by oral gavage. After this antibiotic pre-treatment, mice received a challenge of approximately 4.5 log 10 viable spores of strain VPI 10463 (ATCC-43255) administered by oral gavage (day 0). After that mice received 50 mg/kg vancomycin from day 0 until day 4. Test articles (bile acid) and placebo were administered via oral gavage bid from day 5 through day 11. Efficacy of test articles was assessed by enumeration of survival of test animals over 15 days following C. diff, challenge and by comparison of mortality, disease severity scores and assessment of body weight against placebo treatment.

[4] = target: T1, vitamin D receptor (VDR; NR1I1) (Homo sapiens, UniProt P11473); experiment: One-hybrid reporter assay for the vitamin D receptor; type: cell-based; conditions: result in words
T1 construct: expressed in transfected cells; host or cells: HEK293
T1 sequence (P11473 88-427): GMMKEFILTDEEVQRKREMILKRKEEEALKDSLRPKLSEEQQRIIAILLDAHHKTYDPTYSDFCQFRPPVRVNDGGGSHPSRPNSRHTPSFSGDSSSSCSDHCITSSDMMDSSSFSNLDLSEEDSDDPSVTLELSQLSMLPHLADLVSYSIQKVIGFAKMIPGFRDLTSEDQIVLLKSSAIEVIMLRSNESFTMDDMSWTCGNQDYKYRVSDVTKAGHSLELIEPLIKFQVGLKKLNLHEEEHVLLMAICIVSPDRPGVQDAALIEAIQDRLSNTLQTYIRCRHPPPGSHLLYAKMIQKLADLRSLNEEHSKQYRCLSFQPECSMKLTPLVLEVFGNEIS
Description: The vitamin D receptor (VDR; NR1I1) reporter assay was performed by transient co-transfection of HEK293 cells with pCMV-BD (Stratagene #211342) containing the GAL4 DNA-binding domain fused with the ligand binding domain of VDR (Genbank accession no. NP_000378, aa 88-427), pFR-Luc reporter and pRL-CMV reporter (Promega #E2261) using PEI solution (Sigma Aldrich cat #40872-7) in a 96-well plate. Cells were incubated for 4-6 hours, and then cultured in MEM supplemented with 8.7% FCS, Glutamax, NEAA, sodium pyruvate and Pen/Strep in the presence of test compounds for 16-20 hours. Cells were incubated for 4 to 6 hours in 30 μL/well transfection mix in OPTIMEM and then cultured for further 16 to 20 hours after addition of 120 μL MEM supplemented with 8.7% FCS, Glutamax, NEAA, sodium pyruvate and Pen/Strep in the presence of test compounds. Medium was removed and cells were lysed with 1× Passive Lysis Buffer (Promega). Firefly luciferase buffer was then added and firefly luciferase luminescence was read on BMG LUMIstar OMEGA luminescence plate reader. One second later, renilla luciferase buffer was added and renilla luciferase luminescence was read to evaluate cell viability and to be able to normalize for well to well differences in transfection efficiency.

[5] = system: C. diff. strain VPI 10463 (ATCC-43255) infection; experiment: Murine model of Clostridium difficile-associated disease: acute model; type: in vivo, C57BL6 female mice
Description: Efficacy Evaluation in a Murine Model of Clostridium difficile-Associated Disease: Acute Model
The efficacy of compounds in suppressing C. diff infection was assessed in C57BL6 female mice. Mice were made vulnerable to C. diff. infection by administration of a cocktail of antibiotics (1% glucose, kanamycin (0.5 mg/mL), gentamicin (44 μg/mL), colistin (1062.5 U/mL), metronidazole (269 μg/mL), ciprofloxacin (156 μg/mL), ampicillin (100 μg/mL) and vancomycin (56 μg/mL)) in drinking water for a period of 9 days. 3 days prior to C. diff. infection, mice received a single dose of clindamycin (10 mg/kg) in a volume of 0.5 mL by oral gavage. After this antibiotic pre-treatment, mice received a challenge of approximately 4.5 log 10 viable spores of strain VPI 10463 (ATCC-43255) administered by oral gavage. Test compounds (bile acid) and placebo were administered in the chow or via oral gavage bid from day −2 through day 4 or 10 or 11. Gavage medium was aqueous, PBS-buffered 0.5% hydroxypropyl methylcellulose (HPMC) suspension. Efficacy of test articles was assessed by enumeration of survival of test animals over 12/15 days following C. diff, challenge and by comparison of mortality, disease severity scores and assessment of body weight against placebo treatment.
Results studies 1, 2 and 3 (using compound Example 1, dosed with 100 mg/kg daily dose via food or via gavage bid): […]

[6] = system: C. diff. strain BI1 infection; experiment: Recurrence model hamster of C. diff. infection; type: in vivo, male Syrian hamster; conditions: for survivors: repeated experiment (FIG. 5), 100% of vehicle animals died within 13 days
Description: The efficacy of compounds in suppressing recurrent C. diff infection was assessed in male Syrian hamster. Hamster were made vulnerable to C. diff. infection by administration 1 day prior to C. diff, infection of a single dose of clindamycin (30 mg/kg) by oral gavage. After this antibiotic pre-treatment, mice received a challenge of approximately 1560 viable spores of strain BI1 administered by oral gavage (day 0). After that hamster received 10 mg/kg vancomycin from day 0 until day 5. Test articles (bile acid) and placebo were administered via oral gavage bid from day 6 through day 15. Efficacy of test articles was assessed by enumeration of survival of test animals over 20 days following C. diff. challenge and by comparison of mortality, disease severity scores and assessment of body weight against placebo treatment.

[7] = ALT plasma concentration of mice after 5 days administration; type: in vivo; conditions: 500 mg/kg for 5 days, mice (FIG. 1a, 1b); result in words
[8] = system: C. diff. spore germination; conditions: reported in WO2010/062369, Table 3, cited from earlier work
[9] = Study 1, 0.1% in chow, Day −2 to Day 10
[10] = Study 1, 0.1% in chow, Day −2 to Day 10, n 10
[11] = Study 2, 0.1% in chow, Day −2 to Day 10
[12] = Study 2, 0.1% in chow, Day −2 to Day 10, n 10
[13] = Study 3, 0.1% in chow, Day −2 to Day 4
[14] = Study 3, 0.1% in chow, Day −2 to Day 4, n 10
[15] = Study 3, 0.1% in chow, Day −2 to Day 10
[16] = Study 3, as gavage, Day −2 to Day 4
[17] = Study 3, as gavage, Day −2 to Day 4, n 10
[18] = Study 3, as gavage, Day −2 to Day 10
[19] = Study 2 (so in the source), 0.1% in chow, Day −2 to Day 10
[20] = Study 2, as gavage, Day 5 to Day 11

Structure (SMILES): C[C@H](CCC(=O)O)[C@H]1CC[C@H]2[C@@H]3CC[C@H]4C[C@@H](O)CC[C@]4(C)[C@H]3CC[C@]12C [Example 5, 3β-Hydroxy-5α-cholan-24-oic Acid]
- MIC [1]: 8 µM (≈ 3.01 µg/mL)
- MIC [2]: 3.9 µM (≈ 1.47 µg/mL)

Structure (SMILES): [2H]C1([2H])C[C@@]2(C)[C@H](CC[C@@H]3[C@@H]2CC[C@]2(C)[C@@H]([C@H](C)CCC(=O)O)CC[C@@H]32)C([2H])([2H])C1([2H])O (stereo partly shown) [Example 3, 2,2,3,4,4-d5-Isolithocholic Acid]
- MIC [2]: 7.8 to 15.6 µM (≈ 2.98 to 5.95 µg/mL)
- survival of the animals ([3]; 30 mg/kg): 60%

Structure (SMILES): [2H]C1([2H])C[C@@]2(C)[C@H](CC[C@@H]3[C@@H]2CC[C@]2(C)[C@@H]([C@H](C)CCC(=O)O)CC[C@@H]32)C([2H])([2H])[C@H]1O [Example 2, 2,2,4,4-d4-Isolithocholic Acid]
- MIC [2]: 7.8 to 15.6 µM (≈ 2.97 to 5.94 µg/mL)

Structure (SMILES): C[C@H](CCC(=O)O)[C@H]1CC[C@H]2[C@@H]3CC[C@@H]4C[C@@H](O)CC[C@]4(C)[C@H]3CC[C@]12C [Example 1, Isolithocholic Acid]
- MIC [1]: 16 µM (≈ 6.03 µg/mL)
- MIC [2]: 15.6 µM (≈ 5.87 µg/mL)
- Vitamin D agonism [4]: devoid of this Vitamin D agonism
- % Death [5, 9]: 0%
- % mouse days with total clinical score >0 [5, 9]: 30%
- % mouse days with total clinical score >2 [5, 9]: 0%
- Body weight day 12 [5, 9]: 19.0
- Survived [5, 10]: 10
- Total Deaths [5, 10]: 0
- % Death [5, 11]: 0%
- % mouse days with total clinical score >0 [5, 11]: 65%
- % mouse days with total clinical score >2 [5, 11]: 0%
- Body weight day 12 [5, 11]: 20.0
- Survived [5, 12]: 10
- Total Deaths [5, 12]: 0
- % Death [5, 13]: 20%
- Body weight day 12 [5, 13]: 18.1
- Survived [5, 14]: 8
- Total Deaths [5, 14]: 2
- % mouse days with total clinical score >0 [5, 15]: 72%
- % mouse days with total clinical score >2 [5, 15]: 15%
- % Death [5, 16]: 0%
- Body weight day 12 [5, 16]: 15.5 g
- Survived [5, 17]: 10
- Total Deaths [5, 17]: 0
- % mouse days with total clinical score >0 [5, 18]: 30%
- % mouse days with total clinical score >2 [5, 18]: 2%
- animals in the treatment groups survived ([5]; first study (vehicle group 40% died)): 100%
- animals in the treatment groups survived ([5]; second study (vehicle group 30% died)): 100%
- animals in the treatment groups survived ([5]; third study (vehicle group 80% died)): 80%
- survival of the animals ([3]; 100 mg/kg): 30%
- efficacy (surviving rate), head-to-head comparison of iso-LCA and LCA ([3]; FIG. 2, result in words): higher surviving rate
- % Death ([3]; Study 1, 0.1% in chow, Day 5 to Day 11): 0%
- Survived ([3]; Study 1, 0.1% in chow): 10
- Total Deaths ([3]; Study 1, 0.1% in chow): 0
- Body weight day 12 [3, 9]: 18.4
- % mouse days with total clinical score >0 [3, 19]: 30%
- % mouse days with total clinical score >2 [3, 19]: 1%
- % Death [3, 20]: 0%
- % mouse days with total clinical score >0 [3, 20]: 56%
- % mouse days with total clinical score >2 [3, 20]: 0%
- Body weight day 12 [3, 20]: 16.9 g
- Survived ([3]; Study 2, as gavage): 10
- Total Deaths ([3]; Study 2, as gavage): 0
- animals in the treatment groups died ([3]; vehicle group 70 to 80% died, result in words): none
- survivors ([6]; 30 mg/kg): 20%
- survivors ([6]; 100 mg/kg): 40%
- animals protected ([6]; dose-dependent manner (FIG. 5)): 20-40%
- animals in the treatment group died ([6]; first experiment (FIG. 4), vehicle group 20% died, result in words): none
- spores in caecum and colon of surviving animals ([6]; result in words): removed all spores from caecum and colon
- ALT-elevation (ALT plasma concentration) [7]: less pronounced

Structure (SMILES): C[C@H](CCC(=O)O)[C@H]1CC[C@H]2[C@@H]3CC[C@@H]4C[C@@H](O)CC[C@]4(C)[C@H]3C[C@H](O)[C@]12C [iso-DCA, reference compound]
- MIC [2]: > 250 µM

Structure (SMILES): C[C@H](CCC(=O)O)[C@H]1CC[C@H]2[C@@H]3CC[C@@H]4C[C@H](O)CC[C@]4(C)[C@H]3CC[C@]12C [LCA, lithocholic acid]
- ALT-elevation (ALT plasma concentration) [7]: confirm this described liability of ALT-elevation

Structure (SMILES): CC(=O)O[C@@H]1CC[C@@]2(C)[C@H](CC[C@@H]3[C@@H]2CC[C@]2(C)[C@@H]([C@H](C)CCC(=O)O)CC[C@@H]32)C1 [5β-cholanic acid 3α-ol acetate]
- effect on C. diff. spore germination (inhibition of germination) [8]: no effect
- effect on C. diff. spore germination (inhibition of germination) ([8]; listed as 3-acetyl-LCA): not present

Structure (SMILES): [2H][C@]1(O)CC[C@@]2(C)[C@H](CC[C@@H]3[C@@H]2CC[C@]2(C)[C@@H]([C@H](C)CCC(=O)O)CC[C@@H]32)C1 [Example 4, 3-d1-Isolithocholic Acid]
- MIC [2]: 15.6 µM (≈ 5.89 µg/mL)
